Like-named read-outs stand apart in the source and are kept apart here.

The format of series [1] is binding.
For series [2] the following is noted: rabbits, single oral dose 10 mg kg^−1, n = 5, mean; unit as in Table 4.

Consider `CC(C)(C(=O)O)c1ccc(C(O)CCCN2CCC(C(O)(c3ccccc3)c3ccccc3)CC2)cc1` (stereo not shown) [fexofenadine, Fexofenadine], for which the “Ksv (Stern–Volmer quenching constant)” value in series [1] (298 K (25 °C)) was 1.36 10^6 M^−1; in series [1] (303 K), 1.09 10^6 M^−1; in series [1] (308 K (35 °C)) it was 0.95 10^6 M^−1. This compound also came in with a λz in series [2] of 0.06 h.

The record behind these values is article PMC12054466 (RSC Advances, 2025).
